In ChEMBL document CHEMBL1909294, “Translating clinical findings into knowledge in drug safety evaluation--drug induced liver injury prediction system (DILIps)” (PLoS Comput Biol, 2011):

Assays:
[1] = test system: Hepatotoxicity;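 as to HepSE bilirubinemia: bilirubinemia hepatic side effect score drawn from the DILIps training data, a prediction system for drug-induced liver injury; call rule not given here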;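 as to HepSE cholecystitis: Cholecystitis-related hepatic side effect score drawn from the DILIps (drug-induced liver injury prediction) training data set; call rule not given here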;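 as to HepSE cholelithiasis: hepatic side effect score for cholelithiasis, drawn from the DILIps training data for predicting drug-induced liver injury; call rule not given here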;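 as to HepSE cirrhosis: cirrhosis hepatic side effect score taken from the DILIps (drug-induced liver injury prediction) training set; call rule not given here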;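 as to HepSE elevated liver function tests: hepatic side effect score for raised liver function tests, as recorded in the DILIps training set used for predicting drug-induced liver injury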; as to HepSE hepatic failure: call rule not given here;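 as to HepSE hepatomegaly: hepatic side effect score for hepatomegaly, taken from the training set of the DILIps drug-induced liver injury prediction system; call rule not given here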
[2] = test system: Hepatotoxicity; remark: listed apart in the source;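 as to HepSE bilirubinemia: bilirubinemia hepatic side effect score drawn from the DILIps training data, a prediction system for drug-induced liver injury; call rule not given here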;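 as to HepSE cholecystitis: Cholecystitis-related hepatic side effect score drawn from the DILIps (drug-induced liver injury prediction) training data set; call rule not given here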;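 as to HepSE cholelithiasis: hepatic side effect score for cholelithiasis, drawn from the DILIps training data for predicting drug-induced liver injury; call rule not given here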;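 as to HepSE cirrhosis: cirrhosis hepatic side effect score taken from the DILIps (drug-induced liver injury prediction) training set; call rule not given here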;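 as to HepSE elevated liver function tests: hepatic side effect score for raised liver function tests, as recorded in the DILIps training set used for predicting drug-induced liver injury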; as to HepSE hepatic failure: call rule not given here
[3] = test system: Hepatotoxicity; remark: listed apart in the source;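 as to HepSE bilirubinemia: bilirubinemia hepatic side effect score drawn from the DILIps training data, a prediction system for drug-induced liver injury; call rule not given here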;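 as to HepSE cholecystitis: Cholecystitis-related hepatic side effect score drawn from the DILIps (drug-induced liver injury prediction) training data set; call rule not given here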;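 as to HepSE cholelithiasis: hepatic side effect score for cholelithiasis, drawn from the DILIps training data for predicting drug-induced liver injury; call rule not given here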;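 as to HepSE cirrhosis: cirrhosis hepatic side effect score taken from the DILIps (drug-induced liver injury prediction) training set; call rule not given here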;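 as to HepSE elevated liver function tests: hepatic side effect score for raised liver function tests, as recorded in the DILIps training set used for predicting drug-induced liver injury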; as to HepSE hepatic failure: call rule not given here
[4] = test system: Hepatotoxicity; remark: listed apart in the source;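 as to HepSE bilirubinemia: bilirubinemia hepatic side effect score drawn from the DILIps training data, a prediction system for drug-induced liver injury; call rule not given here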;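 as to HepSE cholecystitis: Cholecystitis-related hepatic side effect score drawn from the DILIps (drug-induced liver injury prediction) training data set; call rule not given here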;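 as to HepSE cholelithiasis: hepatic side effect score for cholelithiasis, drawn from the DILIps training data for predicting drug-induced liver injury; call rule not given here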;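 as to HepSE cirrhosis: cirrhosis hepatic side effect score taken from the DILIps (drug-induced liver injury prediction) training set; call rule not given here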;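 as to HepSE elevated liver function tests: hepatic side effect score for raised liver function tests, as recorded in the DILIps training set used for predicting drug-induced liver injury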; as to HepSE hepatic failure: call rule not given here
[5] = test system: Hepatotoxicity; remark: listed apart in the source; as to HepSE hepatic failure: call rule not given here
[6] = test system: Hepatotoxicity; remark: listed apart in the source; as to HepSE hepatic failure: call rule not given here
[7] = test system: Hepatotoxicity; remark: listed apart in the source
[8] = test system: Hepatotoxicity; remark: listed apart in the source
[9] = test system: Hepatotoxicity; remark: listed apart in the source
[10] = test system: Hepatotoxicity; remark: listed apart in the source
[11] = test system: Hepatotoxicity; remark: listed apart in the source
[12] = test system: Hepatotoxicity; remark: listed apart in the source
[13] = test system: Hepatotoxicity; remark: listed apart in the source
[14] = test system: Hepatotoxicity; remark: listed apart in the source

Row | SMILES | HepSE_bilirubinemia [1] | HepSE_cholecystitis [2] | HepSE_cholelithiasis [3] | HepSE_cirrhosis [4] | HepSE_elevated liver function tests [5] | HepSE_hepatic failure [6] | HepSE_hepatic necrosis [7] | HepSE_hepatitis [8] | HepSE_hepatomegaly [9] | HepSE_jaundice [10] | HepSE_liver disease [11] | HepSE_liver fatty [12] | HepSE_liver function tests abnormal [13] | HepSE_Combined Scores [14]
1 | CN1C(CCl)Nc2cc(Cl)c(S(N)(=O)=O)cc2S1(=O)=O (configuration not stated) [METHYCLOTHIAZIDE] | 0 | 0 | 0 | 0 | 0 | 0 | 0 | 0 | 0 | 1 | 0 | 0 | 0 | 1
2 | COC(=O)CCC(=O)CN [METHYL AMINOLEVULINATE] | 0 | 0 | 0 | 0 | 0 | 0 | 0 | 0 | 0 | 0 | 0 | 0 | 0 | 0
3 | C[C@](N)(Cc1ccc(O)c(O)c1)C(=O)O [METHYLDOPA] | 0 | 0 | 0 | 0 | 0 | 0 | 0 | 1 | 0 | 1 | 0 | 0 | 1 | 3
4 | CC[C@@H](CO)NC(=O)[C@@H]1C=C2c3cccc4[nH]cc(c34)C[C@H]2N(C)C1 [METHYLERGONOVINE] | 0 | 0 | 0 | 0 | 0 | 0 | 0 | 0 | 0 | 0 | 0 | 0 | 0 | 0
5 | COC(=O)C(c1ccccc1)C1CCCCN1 (configuration not stated) [METHYLPHENIDATE] | 0 | 0 | 0 | 0 | 0 | 0 | 0 | 0 | 0 | 0 | 0 | 0 | 1 | 1
6 | C[C@H]1C[C@@H]2[C@H]([C@@H](O)C[C@@]3(C)[C@H]2CC[C@]3(O)C(=O)CO)[C@@]2(C)C=CC(=O)C=C12 [METHYLPREDNISOLONE] | 0 | 0 | 0 | 0 | 0 | 0 | 0 | 0 | 0 | 0 | 0 | 0 | 0 | 0
7 | C[C@]12CCC(=O)C=C1CC[C@@H]1[C@@H]2CC[C@@]2(C)[C@H]1CC[C@]2(C)O [METHYLTESTOSTERONE] | 0 | 0 | 0 | 0 | 0 | 0 | 0 | 0 | 0 | 1 | 0 | 0 | 0 | 1
8 | CC[C@@H](CO)NC(=O)[C@@H]1C=C2c3cccc4c3c(cn4C)C[C@H]2N(C)C1 [METHYSERGIDE] | 0 | 0 | 0 | 0 | 0 | 0 | 0 | 0 | 0 | 0 | 0 | 0 | 0 | 0
9 | CC(=O)Oc1c(C)cc(OCC(O)CNC(C)C)c(C)c1C (configuration not stated) [METIPRANOLOL] | 0 | 0 | 0 | 0 | 0 | 0 | 0 | 0 | 0 | 0 | 0 | 0 | 0 | 0
10 | CCN(CC)CCNC(=O)c1cc(Cl)c(N)cc1OC [METOCLOPRAMIDE] | 0 | 0 | 0 | 0 | 0 | 0 | 0 | 0 | 0 | 1 | 0 | 0 | 0 | 1
11 | Cc1ccccc1N1C(=O)c2cc(S(N)(=O)=O)c(Cl)cc2NC1C (configuration not stated) [METOLAZONE] | 0 | 0 | 0 | 0 | 0 | 0 | 0 | 1 | 0 | 1 | 0 | 0 | 0 | 2
12 | COCCc1ccc(OCC(O)CNC(C)C)cc1 (configuration not stated) [METOPROLOL] | 0 | 0 | 0 | 0 | 0 | 0 | 0 | 1 | 0 | 1 | 0 | 0 | 0 | 2
13 | Cc1ncc([N+](=O)[O-])n1CCO [METRONIDAZOLE] | 0 | 0 | 0 | 0 | 0 | 0 | 0 | 1 | 0 | 0 | 0 | 0 | 0 | 1
